US9822099B2, “Triazole derivatives” (priority 2013, dated 2017)
Marks after values point to notes of the source that are not given here.

Test system: Botrytis cinerea
Experiment: Example A: in vivo preventive test on Botrytis cinerea (grey mould)
Details: 500 ppm of active ingredient; gherkin plants, preventive spray; evaluated 4 to 5 days after inoculation
Procedure: (§1) The young plants of gherkin are treated by spraying the active ingredient prepared as described above. Control plants are treated only with an aqueous solution of acetone/Dimethyl sulfoxide/Tween®. After 24 hours, the plants are contaminated by spraying the leaves with an aqueous suspension of Botrytis cinerea spores.

| Structure (SMILES) | Eff. % |
| --- | --- |
| OC(Cc1ccnc(Cl)c1)(Cn1cncn1)C1(Cl)CC1 (stereo not shown) [Example I-39] | 99% |
| CC1(C(O)(Cc2ccncc2Cl)Cn2cncn2)CC1 (stereo not shown) [Example I-49] | 99% |
| OC(Cc1nccnc1I)(Cn1cncn1)C1(Cl)CC1 (stereo not shown) [Example I-54] | 100% |

Test system: Puccinia recondita
Experiment: Example B: in vivo preventive test on Puccinia recondita (brown rust on wheat)
Details: 500 ppm of active ingredient; wheat plants, preventive spray; evaluated 11 days after inoculation
Procedure: as §1, with “wheat” for “gherkin”, “Puccinia recondita” for “Botrytis cinerea”

| Structure (SMILES) | Eff. % |
| --- | --- |
| OC(Cc1ccnc(Cl)c1)(Cn1cncn1)C1(Cl)CC1 (stereo not shown) [Example I-39] | 97% |
| CC1(C(O)(Cc2ccncc2Cl)Cn2cncn2)CC1 (stereo not shown) [Example I-49] | 100% |
| OC(Cc1nccnc1I)(Cn1cncn1)C1(Cl)CC1 (stereo not shown) [Example I-54] | 97% |

Test system: Pyrenophora teres
Experiment: Example C: in vivo preventive test on Pyrenophora teres (net blotch on barley)
Details: 500 ppm of active ingredient; barley plants, preventive spray; evaluated 14 days after inoculation
Procedure: as §1, with “barley” for “gherkin”, “Pyrenophora teres” for “Botrytis cinerea”

| Structure (SMILES) | Eff. % |
| --- | --- |
| OC(Cc1ccnc(Cl)c1)(Cn1cncn1)C1(Cl)CC1 (stereo not shown) [Example I-39] | 100% |
| CC1(C(O)(Cc2ccncc2Cl)Cn2cncn2)CC1 (stereo not shown) [Example I-49] | 93% |

Test system: Septoria tritici
Experiment: Example D: in vivo preventive test on Septoria tritici (leaf spot on wheat)
Details: 500 ppm of active ingredient; wheat plants, preventive spray; evaluated 24 days after inoculation
Procedure: as §1, with “wheat” for “gherkin”, “Septoria tritici” for “Botrytis cinerea”

| Structure (SMILES) | Eff. % |
| --- | --- |
| OC(Cc1ccnc(Cl)c1)(Cn1cncn1)C1(Cl)CC1 (stereo not shown) [Example I-39] | 100% |
| CC1(C(O)(Cc2ccncc2Cl)Cn2cncn2)CC1 (stereo not shown) [Example I-49] | 100% |
| OC(Cc1nccnc1I)(Cn1cncn1)C1(Cl)CC1 (stereo not shown) [Example I-54] | 100% |

Test system: Sphaerotheca fuliginea
Experiment: Example E: in vivo preventive test on Sphaerotheca fuliginea (powdery mildew on cucurbits)
Details: 500 ppm of active ingredient; gherkin plants, preventive spray; evaluated 15 days after inoculation
Procedure: as §1, with “Sphaerotheca fuliginea” for “Botrytis cinerea”

| Structure (SMILES) | Eff. % |
| --- | --- |
| OC(Cc1ccnc(Cl)c1)(Cn1cncn1)C1(Cl)CC1 (stereo not shown) [Example I-39] | 100% |
| CC1(C(O)(Cc2ccncc2Cl)Cn2cncn2)CC1 (stereo not shown) [Example I-49] | 100% |
| OC(Cc1nccnc1I)(Cn1cncn1)C1(Cl)CC1 (stereo not shown) [Example I-54] | 100% |

Test system: Uromyces appendiculatus
Experiment: Example F: in vivo preventive test on Uromyces appendiculatus (bean rust)
Details: 500 ppm of active ingredient; bean plants, preventive spray; evaluated 11 days after inoculation
Procedure: as §1, with “bean” for “gherkin”, “Uromyces appendiculatus” for “Botrytis cinerea”

| Structure (SMILES) | Eff. % |
| --- | --- |
| OC(Cc1ccnc(Cl)c1)(Cn1cncn1)C1(Cl)CC1 (stereo not shown) [Example I-39] | 100% |
| CC1(C(O)(Cc2ccncc2Cl)Cn2cncn2)CC1 (stereo not shown) [Example I-49] | 81% |
| OC(Cc1nccnc1I)(Cn1cncn1)C1(Cl)CC1 (stereo not shown) [Example I-54] | 100% |

Test system: Blumeria graminis f. sp. hordei
Experiment: Example G: Blumeria test (barley)/preventive
Type: in vivo
Details: 500 ppm of active ingredient, preventive, evaluated 7 days after inoculation
Procedure: (§2) Solvent: 49 parts by weight of N,N-dimethylacetamide Emulsifier: 1 part by weight of alkylaryl polyglycol ether To produce a suitable preparation of active compound, 1 part by weight of active compound or active compound combination is mixed with the stated amounts of solvent and emulsifier, and the concentrate is diluted with water to the desired concentration. To test for preventive activity, young plants are sprayed with the preparation of active compound or active compound combination at the stated rate of application. After the spray coating has been dried, the plants are dusted with spores of Blumeria graminis f. sp. hordei.

| Structure (SMILES) | Eff. % |
| --- | --- |
| OC(Cc1ccnc(Cl)c1)(Cn1cncn1)C1(Cl)CC1 (stereo not shown) [Example I-39] | 100% |
| CC1(C(O)(Cc2ccncc2Cl)Cn2cncn2)CC1 (stereo not shown) [Example I-49] | 100% |
| OC(Cc1nccnc1I)(Cn1cncn1)C1(Cl)CC1 (stereo not shown) [Example I-54] | 100% |

Test system: Fusarium culmorum
Experiment: Example H: Fusarium culmorum-test (wheat)/curative
Type: in vivo
Details: 500 ppm of active ingredient, curative, evaluated 5 days after inoculation
Procedure: (§3) Solvent: 49 parts by weight of N,N-dimethylacetamide
(§4) Emulsifier: 1 part by weight of alkylaryl polyglycol ether
(§5) To produce a suitable preparation of active compound, 1 part by weight of active compound or active compound combination is mixed with the stated amounts of solvent and emulsifier, and the concentrate is diluted with water to the desired concentration.
To test for curative activity, young plants are slightly injured by using a sandblast and afterwards they are sprayed with a conidia suspension of Fusarium culmorum and placed for 24 hours in a greenhouse under a translucent incubation cabinet at a temperature of approximately 22° C. and a relative atmospheric humidity of approximately 100% and are subsequently sprayed with the preparation of active compound at the stated rate of application.
After the spray coating has been dried, the plants remain in the greenhouse under translucent incubation cloches at a temperature of approximately 22° C. and a relative atmospheric humidity of approximately 100%.
(§6) The test is evaluated 5 days after the inoculation. 0% means an efficacy which corresponds to that of the untreated control, while an efficacy of 100% means that no disease is observed.

| Structure (SMILES) | Eff. % |
| --- | --- |
| OC(Cc1ccnc(Cl)c1)(Cn1cncn1)C1(Cl)CC1 (stereo not shown) [Example I-39] | 100% |
| CC1(C(O)(Cc2ccncc2Cl)Cn2cncn2)CC1 (stereo not shown) [Example I-49] | 100% |

Test system: Fusarium graminearum
Experiment: not given
Type: in vivo
Details: 500 ppm of active ingredient; barley, preventive; evaluated 5 days after inoculation

| Structure (SMILES) | Eff. % |
| --- | --- |
| OC(Cc1ccnc(Cl)c1)(Cn1cncn1)C1(Cl)CC1 (stereo not shown) [Example I-39] | 100% |
| CC1(C(O)(Cc2ccncc2Cl)Cn2cncn2)CC1 (stereo not shown) [Example I-49] | 100% |
| OC(Cc1nccnc1I)(Cn1cncn1)C1(Cl)CC1 (stereo not shown) [Example I-54] | 100% |

Test system: Fusarium nivale (var. majus)
Experiment: Example J: Fusarium nivale (var. majus)-test (wheat)/preventive
Type: in vivo
Details: 500 ppm of active ingredient, preventive, evaluated 5 days after inoculation
Procedure: as §3, §4, §5
To test for preventive activity, young plants are sprayed with the preparation of active compound or active compound combination at the stated rate of application.
After the spray coating has been dried, the plants are slightly injured by using a sandblast and afterwards they are sprayed with a conidia suspension of Fusarium nivale (var. majus).
The plants are placed in the greenhouse under a translucent incubation cabinet at a temperature of approximately 10° C. and a relative atmospheric humidity of approximately 100%.
as §6

| Structure (SMILES) | Eff. % |
| --- | --- |
| OC(Cc1ccnc(Cl)c1)(Cn1cncn1)C1(Cl)CC1 (stereo not shown) [Example I-39] | 100% |
| CC1(C(O)(Cc2ccncc2Cl)Cn2cncn2)CC1 (stereo not shown) [Example I-49] | 100% |
| OC(Cc1nccnc1I)(Cn1cncn1)C1(Cl)CC1 (stereo not shown) [Example I-54] | 100% |

Test system: Leptosphaeria nodorum
Experiment: Example K: Leptosphaeria nodorum test (wheat)/preventive
Type: in vivo
Details: 500 ppm of active ingredient, preventive, evaluated 8 days after inoculation
Procedure: as §2, with “sprayed” for “dusted”, “a spore suspension” for “spores”, “Leptosphaeria nodorum.” for “Blumeria graminis f. sp. hordei.”

| Structure (SMILES) | Eff. % |
| --- | --- |
| OC(Cc1ccnc(Cl)c1)(Cn1cncn1)C1(Cl)CC1 (stereo not shown) [Example I-39] | 100% |
| CC1(C(O)(Cc2ccncc2Cl)Cn2cncn2)CC1 (stereo not shown) [Example I-49] | 100% |

Test system: Phakopsora pachyrhizi
Experiment: Example L: Phakopsora test (soybeans)/preventive
Type: in vivo
Details: 10 ppm of active ingredient, preventive, evaluated 7 days after inoculation

| Structure (SMILES) | Eff. % |
| --- | --- |
| OC(Cc1ccnc(Cl)c1)(Cn1cncn1)C1(Cl)CC1 (stereo not shown) [Example I-39] | 88% |

Same assay, conditions: 100 ppm of active ingredient, preventive, evaluated 7 days after inoculation

| Structure (SMILES) | Eff. % |
| --- | --- |
| CC1(C(O)(Cc2ccncc2Cl)Cn2cncn2)CC1 (stereo not shown) [Example I-49] | 96% |
| OC(Cc1nccnc1I)(Cn1cncn1)C1(Cl)CC1 (stereo not shown) [Example I-54] | 99% |

Test system: Pyricularia oryzae
Experiment: not given
Type: in vivo
Details: 500 ppm of active ingredient; rice, preventive; evaluated 8 days after inoculation

| Structure (SMILES) | Eff. % |
| --- | --- |
| OC(Cc1ccnc(Cl)c1)(Cn1cncn1)C1(Cl)CC1 (stereo not shown) [Example I-39] | 80% |
| OC(Cc1nccnc1I)(Cn1cncn1)C1(Cl)CC1 (stereo not shown) [Example I-54] | 78% |

Test system: Venturia inaequalis
Experiment: Example O: Venturia test (apples)/preventive
Type: in vivo
Details: 100 ppm of active ingredient, preventive, evaluated 10 days after inoculation
Procedure: Solvent: 24.5 parts by weight of acetone • 24.5 parts by weight of dimethylacetamide Emulsifier: 1 part by weight of alkylaryl polyglycol ether To produce a suitable preparation of active compound, 1 part by weight of active compound is mixed with the stated amounts of solvent and emulsifier, and the concentrate is diluted with water to the desired concentration. To test for preventive activity, young plants are sprayed with the preparation of active compound at the stated rate of application.

| Structure (SMILES) | Eff. % |
| --- | --- |
| CC1(C(O)(Cc2ccncc2Cl)Cn2cncn2)CC1 (stereo not shown) [Example I-49] | 100% |
| OC(Cc1nccnc1I)(Cn1cncn1)C1(Cl)CC1 (stereo not shown) [Example I-54] | 89% |

Test system: not given
Experiment: not given
Details: pH 2.7

| Structure (SMILES) | LogP |
| --- | --- |
| OC(Cc1ccnc(Cl)c1)(Cn1cncn1)C1(Cl)CC1 (stereo not shown) [Example I-39] | 1.76^[a] |
| CC1(C(O)(Cc2ccncc2Cl)Cn2cncn2)CC1 (stereo not shown) [Example I-49] | 1.57^[a] |
| OC(Cc1nccnc1I)(Cn1cncn1)C1(Cl)CC1 (stereo not shown) [Example I-54] | 2.07^[a] |
